Results as given in patent US20250011288A1 (BRISTOL-MYERS SQUIBB COMPANY, priority 2021, published 2025).

What follows are compounds tested against T1, human RXFP1 (Homo sapiens, UniProt Q9HBX9) (assay: human RXFP1 (hRXFP1) HEK293 cAMP assay (HTRF)). Conditions: HEK293 cells stably expressing human RXFP1, 30 min at room temperature.
T1 construct: expressed in transfected cells
T1 sequence (Q9HBX9 1-757): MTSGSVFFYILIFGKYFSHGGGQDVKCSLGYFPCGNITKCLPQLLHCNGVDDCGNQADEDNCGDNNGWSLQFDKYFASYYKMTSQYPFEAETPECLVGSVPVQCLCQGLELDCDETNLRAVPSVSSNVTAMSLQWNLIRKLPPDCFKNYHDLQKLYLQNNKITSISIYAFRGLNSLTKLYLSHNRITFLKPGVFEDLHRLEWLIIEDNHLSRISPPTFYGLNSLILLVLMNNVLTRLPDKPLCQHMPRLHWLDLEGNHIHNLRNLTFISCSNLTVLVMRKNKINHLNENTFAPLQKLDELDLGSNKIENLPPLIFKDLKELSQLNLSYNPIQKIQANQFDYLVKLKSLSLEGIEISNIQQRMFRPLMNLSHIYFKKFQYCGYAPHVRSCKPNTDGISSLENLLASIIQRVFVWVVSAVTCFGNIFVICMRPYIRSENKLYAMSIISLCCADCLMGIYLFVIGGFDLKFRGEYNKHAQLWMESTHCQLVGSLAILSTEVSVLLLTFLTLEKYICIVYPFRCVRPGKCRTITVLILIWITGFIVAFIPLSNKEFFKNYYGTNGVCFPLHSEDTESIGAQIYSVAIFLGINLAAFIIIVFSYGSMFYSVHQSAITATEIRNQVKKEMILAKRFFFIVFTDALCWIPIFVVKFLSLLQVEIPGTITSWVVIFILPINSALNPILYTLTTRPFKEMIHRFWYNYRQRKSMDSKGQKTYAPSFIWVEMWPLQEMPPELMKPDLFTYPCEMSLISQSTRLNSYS
Format: cell-based
Outline: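 Intracellular cAMP was quantified by HTRF after a 30 min room-temperature exposure of hRXFP1-HEK293 cells (1500/well) to compound at 0.010 nM–50 µM final, 2% DMSO. Buffer was HBSS with 20 mM HEPES, 0.05% BSA and 0.5 mM IBMX; values came from a 4-parameter logistic fit.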

First: COc1ncc(C(=O)N2CC3(COC3)C2)cc1C(=O)N[C@H]1[C@@H](C(=O)Nc2ccc(F)c(C(F)(F)F)c2)[C@H]2CC[C@@H]1/C2=C\C1CC1 [Example 76, N-[(1R,2R, 3S,4R,7Z)-7-(cyclopropyl-methylidene)-3-{[4-fluoro-3-(trifluoromethyl)phenyl]carbamoyl}bicyclo[2.2.1]heptan-2-yl]-2-methoxy-5-{2-oxa-6-azaspiro[3.3]heptane-6-carbonyl}pyridine-3-carboxamide]
Second: COc1ncc(C2=NOC3CC(C(N)=O)CC23)cc1C(=O)N[C@H]1[C@@H](C(=O)Nc2ccc(F)c(C(F)(F)F)c2)[C@H]2CC[C@@H]1/C2=C\C1CC1 (stereo partly drawn) [Example 66, 5-{5-carbamoyl-3aH,4H,5H,6H, 6aH-cyclopenta[d][1, 2]oxazol-3-yl}-N-[(1R,2R,3S, 4R,7Z)-7-(cyclopropylmethylidene)-3-{[4-fluoro-3-(trifluoromethyl)phenyl]carbamoyl}bicyclo[2.2.1]heptan-2-yl]-2-methoxypyridine-3-carboxamide]
The EC50 of the first is 50-fold higher: 65 nM for the first, 1.3 nM for the second.

Going from `O=C(N[C@@H]1C2CCC(/C2=C/C(F)(F)F)[C@@H]1C(=O)Nc1ccc(F)c(C(F)(F)F)c1)c1nc(Br)cnc1OCCO` (some centres unmarked) [Example 48] to `COc1ncc(-c2cc(C(=O)O)ccc2F)cc1C(=O)N[C@@H]1C2CCC(/C2=C/C(F)(F)F)[C@@H]1C(=O)Nc1ccc(F)c(C(F)(F)F)c1` (stereo partly drawn) [Example 28, 4-Fluoro-3-(5-{[(2R,3S,7Z)-3-{[4-fluoro-3-(trifluoromethyl)phenyl]carbamoyl}-7-(2,2,2-trifluoroethylidene)bicyclo[2. 2.1]heptan-2-yl]carbamoyl}-6-methoxypyridin-3-yl)benzoic acid], the EC50 falls from 880 nM to 34 nM (26-fold). The second is the more potent here.

`COc1ncc(-c2cc([C@H](OC(=O)NC3CC3)C(F)(F)F)ccc2F)cc1C(=O)N[C@H]1[C@@H](C(=O)Nc2ccc(F)c(C(F)(F)F)c2)[C@H]2CC[C@@H]1/C2=C\CCC(F)(F)F` [Example 165, (1S)-2,2,2-trifluoro-1-[4-fluoro-3-(5-{[(1R,2R,3S,4R, 7Z)-3-{[4-fluoro-3-(trifluoromethyl)phenyl]carbamoyl}-7-(4,4,4-trifluorobutylidene)bicyclo[2.2.1]heptan-2-yl]carbamoyl}-6-methoxypyridin-3-yl)phenyl]ethyl N-cyclopropyl-carbamate] and `COc1ncc(-c2cc([C@H](OC(=O)NC3CC3)C(F)(F)F)ccc2F)cc1C(=O)N[C@H]1[C@@H](C(=O)Nc2ccc(F)c(C(F)(F)F)c2)[C@H]2CC[C@@H]1/C2=C\C1CC(F)(F)C1` [Example 167, (1S)-1-[3-(5-{[(1R,2R,3S,4R, 7Z)-7-[(3,3-difluorocyclobutyl)methylidene]-3-{[4-fluoro-3-(trifluoromethyl)phenyl]carbamoyl}bicyclo[2.2.1]heptan-2-yl]carbamoyl}-6-methoxypyridin-3-yl)-4-fluorophenyl]-2,2,2-trifluoroethyl N-cyclopropyl-carbamate] are within 1.5-fold of each other in EC50: 1.2 nM for the first, 1.7 nM for the second.

Compared with `COc1ncc(C2=NOC3CC(C(C)(C)O)CC23)cc1C(=O)N[C@H]1[C@@H](C(=O)Nc2ccc(F)c(C(F)(F)F)c2)[C@H]2CC[C@@H]1/C2=C\C1CC1` (stereo partly drawn) [Example 109, N-((1R,2R,3S,4R,Z)-7-(cyclopropylmethylene)-3-((4-fluoro-3-(trifluoromethyl)phenyl)carbamoyl)bicyclo[2.2.1]heptan-2-yl)-5-(5-(2-hydroxypropan-2-yl)-3a,5,6,6a-tetrahydro-4H-cyclopenta[d]isoxazol-3-yl)-2-methoxynicotinamide], `COc1ncc(C2=NOC3CC(C(O)C(F)(F)F)CC23)cc1C(=O)N[C@H]1[C@@H](C(=O)Nc2ccc(F)c(C(F)(F)F)c2)[C@H]2CC[C@@H]1/C2=C\C1CCCC1` (stereo partly drawn) [Example 173, N-[(1R,2R,3S,4R, 7Z)-7-(cyclopentyl-methylidene)-3-{[4-fluoro-3-(trifluoromethyl)phenyl]carbamoyl}bicyclo[2.2.1]heptan-2-yl]-2-methoxy-5-[5-(2,2,2-trifluoro-1-hydroxyethyl)-3aH,4H,5H,6H, 6aH-cyclopenta[d][1,2]oxazol-3-yl]pyridine-3-carboxamide] is 4.5-fold lower in EC50: 2.7 nM for the first, 0.6 nM for the second. The second is the more potent here.

Compared with `COc1cc2c(cc1C(=O)N[C@H]1[C@@H](C(=O)Nc3ccc(F)c(C(F)(F)F)c3)[C@H]3CC[C@@H]1/C3=C\C1CC1)CN(C(=O)OC(C)(C)C)CC2` [Example 82, tert-butyl 7-(((1R,2R,3S,4R,Z)-7-(cyclopropylmethylene)-3-((4-fluoro-3-(trifluoromethyl)phenyl)carbamoyl)bicyclo[2.2.1]heptan-2-yl)carbamoyl)-6-methoxy-3,4-dihydroisoquinoline-2(1H)-carboxylate], `COc1cc2c(cc1C(=O)N[C@H]1[C@@H](C(=O)Nc3ccc(F)c(C(F)(F)F)c3)[C@H]3CC[C@@H]1/C3=C\C1CC1)CN(S(C)(=O)=O)CC2` [Example 89, N-[(1R,2R,3S,4R)-7-(cyclopropyl-methylidene)-3-{[4-fluoro-3-(trifluoromethyl)phenyl]carbamoyl}bicyclo[2.2.1]heptan-2-yl]-2-methanesulfonyl-6-methoxy-1,2,3,4-tetrahydro-isoquinoline-7-carboxamide] is 2.9-fold lower in EC50: 660 nM for the first, 230 nM for the second. The second is the more potent here.

Going from `COc1cnc(-c2cc([C@H](OC(=O)Nc3ccccc3)C(F)(F)F)ccc2F)nc1C(=O)N[C@@H]1C2CCC(/C2=C/C(F)(F)F)[C@@H]1C(=O)Nc1ccc(F)c(C(F)(F)F)c1` (stereo partly drawn) [Example 36, (1S)-2.2,2-trifluoro-1-[4-fluoro-3-(4-{[(2R,3S,7Z)-3-{[4-fluoro-3-(trifluoromethyl)phenyl]carbamoyl}-7-(2,2,2-trifluoroethylidene)bicyclo[2. 2.1]heptan-2-yl]carbamoyl}-5-methoxypyrimidin-2-yl)phenyl]ethyl N-phenylcarbamate] to `COc1ncc(C2=NOC3CC(C(OC(=O)NC4CCC4)C4CC4)CC23)cc1C(=O)N[C@@H]1C2CCC(/C2=C/C2CC(F)(F)C2)[C@@H]1C(=O)Nc1ccc(F)c(C(F)(F)F)c1` (stereo partly drawn) [Example 161, cyclopropyl[3-(5-{[(2R,3S,7Z)-7-[(3,3-difluorocyclobutyl)methylidene]-3-{[4-fluoro-3-(trifluoromethyl)phenyl]carbamoyl}bicyclo[2.2.1]heptan-2-yl]carbamoyl}-6-methoxypyridin-3-yl)-3aH,4H,5H,6H, 6aH-cyclopenta[d][1,2]oxazol-5-yl]methyl N-cyclobutylcar-bamate], the EC50 falls from 63 nM to 9 nM (7-fold).

First: COc1ncc(C2=NO[C@H]3C[C@H](C#N)CN23)cc1C(=O)N[C@@H]1C2CCC(/C2=C/C2CC2)[C@@H]1C(=O)Nc1ccc(F)c(C(F)(F)F)c1 (stereo partly drawn) [Example 134, 5-((6S,7aS)-6-cyano-5,6,7,7a-tetrahydropyrrolo [1,2-d][1,2,4]oxadiazo 1-3-yl)-N-((1R,2R,3S,4R,Z)-7-(cyclopropyl-methylene)-3-((4-fluoro-3-(trifluoromethyl)phenyl)carbamoyl)bicyclo[2.2.1]heptan-2-yl)-2-methoxynicotinamide]
Second: CC(C)(O)CN1CC2ON=C(c3cc4c(c(C(=O)N[C@H]5[C@@H](C(=O)Nc6ccc(F)c(C(F)(F)F)c6)[C@H]6CC[C@@H]5/C6=C\C5CC5)c3)OC(C)(C)C4)C2C1 (stereo partly drawn) [Example 179, N-[(1R,2R,3S,4R, 7Z)-7-(cyclopropyl-methylidene)-3-{[4-fluoro-3-(trifluoromethyl)phenyl]carbamoyl}bicyclo[2.2.1]heptan-2-yl]-5-[5-(2-hydroxy-2-methylpropyl)-3aH,4H,5H,6H, 6aH-pyrrolo[3,4-d][1,2]oxazol-3-yl]-2,2-dimethyl-2,3-dihydro-1-benzofuran-7-carboxamide]
The EC50 of the first is 2-fold lower: 3.2 nM for the first, 6.5 nM for the second.
